Seven molecules from ChEMBL document CHEMBL1795277, “Synthesis of novel pyrazolo[1,5-a]pyrazin-4(5H)-one derivatives and their inhibition against growth of A549 and H322 lung cancer cells” (Bioorg Med Chem Lett, 2011) can be followed below.

The source made the active and inactive calls. The rule behind the calls is not given here.

Usually IC50 stands for the concentration at which inhibition is half-maximal.

The test system of one experiment is A549. The experiment in a line: Cytotoxicity against human A549 cells assessed as cell growth inhibition after 48 hrs by SRB assay.
Details: not given
The class given is functional, cell-based. In general terms: The SRB assay estimates cell density from bound dye.
As for `COc1ccc(-c2cc3c(=O)n(CCOCCO)c(-c4ccc(OC)cc4)cn3n2)cc1`, the “growth inhibition (GI)” value is “Dose-dependent effect”.

Consider `O=c1c2cc(-c3ccc(Cl)cc3)nn2cc(-c2ccccc2)n1CCOCCO`, for which the “growth inhibition (GI)” value was “Dose-dependent effect”.

Take `O=c1c2cc(-c3ccccc3)nn2cc(-c2ccccc2)n1CCOCCO`: the “growth inhibition (GI)” value is “Dose-dependent effect”.

The experiment is the same for the next values; noted with them: A549, 48 h.
Take `COc1ccc(-c2cn3nc(-c4ccccc4)cc3c(=O)n2CCOCCO)cc1`: the IC50 was determined as 59 µM.

As to `COc1ccc(-c2cc3c(=O)n(CCOCCO)c(-c4ccc(OC)cc4)cn3n2)cc1`, the IC50 is 34.7 µM.

In the case of `O=c1c2cc(-c3ccccc3)nn2cc(-c2ccc(Cl)cc2)n1CCOCCO`, the concentration for half-maximal inhibition (IC50) was 62.6 µM.

Regarding `O=c1c2cc(-c3ccc(Cl)cc3)nn2cc(-c2ccccc2)n1CCOCCO`, the IC50 stood at 24.2 µM.

Turning to `COc1ccc(-c2cc3c(=O)n(CCOCCO)c(-c4ccccc4)cn3n2)cc1`, the IC50 came to 50.3 µM.

For the molecule `O=c1c2cc(-c3ccccc3)nn2cc(-c2ccccc2)n1CCOCCO`, the IC50 was found to be 41.1 µM.

`COc1ccc(-c2cc3c(=O)n(CCOCCO)c(-c4ccc(Cl)cc4)cn3n2)cc1`: the concentration for half-maximal inhibition (IC50) stood at 49.7 µM.

The next experiment has as its system A549. The experiment in a line: Cytotoxicity against human A549 cells assessed as reduction of total cell quantity at 40 uM after 48 hrs by inverted microscopic analysis. The class given is functional, cell-based.
Details: not given
Turning to `COc1ccc(-c2cc3c(=O)n(CCOCCO)c(-c4ccc(OC)cc4)cn3n2)cc1`, the result was Active.

For `O=c1c2cc(-c3ccc(Cl)cc3)nn2cc(-c2ccccc2)n1CCOCCO`, the result was Active.

Regarding `O=c1c2cc(-c3ccccc3)nn2cc(-c2ccccc2)n1CCOCCO`, the result was Active.

For a further experiment, the system named is NCI-H322. The experiment is described as follows: Induction morphological changes in human NCI-H322 cells at 40 uM after 48 hrs by inverted microscopic analysis. The class given is functional, cell-based.
Details: not given
With `COc1ccc(-c2cc3c(=O)n(CCOCCO)c(-c4ccc(OC)cc4)cn3n2)cc1`, the outcome was Active.

In the case of `O=c1c2cc(-c3ccc(Cl)cc3)nn2cc(-c2ccccc2)n1CCOCCO`, the result was Active.

Regarding `O=c1c2cc(-c3ccccc3)nn2cc(-c2ccccc2)n1CCOCCO`, the outcome was Active.

Another experiment has as its system A549. The experiment is described as follows: Induction morphological changes in human A549 cells at 40 uM after 48 hrs by inverted microscopic analysis. The class given is functional, cell-based.
Details: not given
Take `COc1ccc(-c2cc3c(=O)n(CCOCCO)c(-c4ccc(OC)cc4)cn3n2)cc1`: the outcome was Active.

For `O=c1c2cc(-c3ccc(Cl)cc3)nn2cc(-c2ccccc2)n1CCOCCO`, the outcome was Active.

Consider `O=c1c2cc(-c3ccccc3)nn2cc(-c2ccccc2)n1CCOCCO`, for which the result was Active.

A further experiment relates to A549. The experiment in a line: Cytotoxicity against human A549 cells assessed as cell growth inhibition at 40 uM after 48 hrs by SRB assay.
Details: not given
The class given is functional, cell-based.
On to `COc1ccc(-c2cn3nc(-c4ccccc4)cc3c(=O)n2CCOCCO)cc1`, for which the “growth inhibition (GI)” value was “Active”.

As for `COc1ccc(-c2cc3c(=O)n(CCOCCO)c(-c4ccc(OC)cc4)cn3n2)cc1`, the “growth inhibition (GI)” value is “Active”.

As for `O=c1c2cc(-c3ccccc3)nn2cc(-c2ccc(Cl)cc2)n1CCOCCO`, the “growth inhibition (GI)” value is “Active”.

`O=c1c2cc(-c3ccc(Cl)cc3)nn2cc(-c2ccccc2)n1CCOCCO`: the “growth inhibition (GI)” value is “Active”.

For the molecule `COc1ccc(-c2cc3c(=O)n(CCOCCO)c(-c4ccccc4)cn3n2)cc1`, the “growth inhibition (GI)” value was “Active”.

Take `O=c1c2cc(-c3ccccc3)nn2cc(-c2ccccc2)n1CCOCCO`: the “growth inhibition (GI)” value was “Active”.

Regarding `COc1ccc(-c2cc3c(=O)n(CCOCCO)c(-c4ccc(Cl)cc4)cn3n2)cc1`, the “growth inhibition (GI)” value was “Active”.

The test system of a further experiment is NCI-H322. The experiment is described as follows: Cytotoxicity against human NCI-H322 cells assessed as cell growth inhibition at 40 uM after 48 hrs by SRB assay. The class given is functional, cell-based.
Details: not given
`COc1ccc(-c2cn3nc(-c4ccccc4)cc3c(=O)n2CCOCCO)cc1`: the “growth inhibition (GI)” value was “Active”.

As to `COc1ccc(-c2cc3c(=O)n(CCOCCO)c(-c4ccc(OC)cc4)cn3n2)cc1`, the “growth inhibition (GI)” value is “Active”.

For the molecule `O=c1c2cc(-c3ccccc3)nn2cc(-c2ccc(Cl)cc2)n1CCOCCO`, the “growth inhibition (GI)” value was “Active”.

For `O=c1c2cc(-c3ccc(Cl)cc3)nn2cc(-c2ccccc2)n1CCOCCO`, the “growth inhibition (GI)” value is “Active”.

Turning to `COc1ccc(-c2cc3c(=O)n(CCOCCO)c(-c4ccccc4)cn3n2)cc1`, the “growth inhibition (GI)” value is “Active”.

As for `O=c1c2cc(-c3ccccc3)nn2cc(-c2ccccc2)n1CCOCCO`, the “growth inhibition (GI)” value was “Active”.

As for `COc1ccc(-c2cc3c(=O)n(CCOCCO)c(-c4ccc(Cl)cc4)cn3n2)cc1`, the “growth inhibition (GI)” value was “Active”.

The next experiment has as its system NCI-H322. The experiment in a line: (§1) Cytotoxicity against human NCI-H322 cells assessed as cell growth inhibition after 48 hrs by SRB assay.
Details: not given
The class given is functional, cell-based.
Take `COc1ccc(-c2cc3c(=O)n(CCOCCO)c(-c4ccc(OC)cc4)cn3n2)cc1`: the “growth inhibition (GI)” value was “Dose-dependent effect”.

For `O=c1c2cc(-c3ccc(Cl)cc3)nn2cc(-c2ccccc2)n1CCOCCO`, the “growth inhibition (GI)” value was “Dose-dependent effect”.

As to `O=c1c2cc(-c3ccccc3)nn2cc(-c2ccccc2)n1CCOCCO`, the “growth inhibition (GI)” value is “Dose-dependent effect”.

Test system in a further experiment: not listed separately
The description is as §1. The settings on record: NCI-H322, 48 h. The class given is functional, cell-based.
In the case of `COc1ccc(-c2cn3nc(-c4ccccc4)cc3c(=O)n2CCOCCO)cc1`, the IC50 was 74.7 µM.

On to `COc1ccc(-c2cc3c(=O)n(CCOCCO)c(-c4ccc(OC)cc4)cn3n2)cc1`, for which the IC50 amounted to 50.6 µM.

In the case of `O=c1c2cc(-c3ccccc3)nn2cc(-c2ccc(Cl)cc2)n1CCOCCO`, the IC50 came out at 91 µM.

In the case of `O=c1c2cc(-c3ccc(Cl)cc3)nn2cc(-c2ccccc2)n1CCOCCO`, the concentration for half-maximal inhibition (IC50) turned out to be 29.4 µM.

For `COc1ccc(-c2cc3c(=O)n(CCOCCO)c(-c4ccccc4)cn3n2)cc1`, the IC50 stood at 68.7 µM.

As for `O=c1c2cc(-c3ccccc3)nn2cc(-c2ccccc2)n1CCOCCO`, the IC50 worked out at 45.6 µM.

Regarding `COc1ccc(-c2cc3c(=O)n(CCOCCO)c(-c4ccc(Cl)cc4)cn3n2)cc1`, the 50% inhibitory concentration (IC50) came to 76.9 µM.

For the next experiment, the system named is NCI-H322. The experiment is described as follows: Induction necrosis in human NCI-H322 cells at 40 uM after 48 hrs by LDH release assay. The class given is functional, cell-based.
Details: not given
(LDH in the medium is a marker of cell lysis.)
For `COc1ccc(-c2cc3c(=O)n(CCOCCO)c(-c4ccc(OC)cc4)cn3n2)cc1`, the result was inactive.

In the case of `O=c1c2cc(-c3ccc(Cl)cc3)nn2cc(-c2ccccc2)n1CCOCCO`, the outcome was inactive.

In the case of `O=c1c2cc(-c3ccccc3)nn2cc(-c2ccccc2)n1CCOCCO`, the result was inactive.

For another experiment, the system named is A549. The experiment is described as follows: Induction necrosis in human A549 cells at 40 uM after 48 hrs by LDH release assay. The class given is functional, cell-based.
Details: not given
Take `COc1ccc(-c2cc3c(=O)n(CCOCCO)c(-c4ccc(OC)cc4)cn3n2)cc1`: the result was inactive.

Regarding `O=c1c2cc(-c3ccc(Cl)cc3)nn2cc(-c2ccccc2)n1CCOCCO`, the result was inactive.

Consider `O=c1c2cc(-c3ccccc3)nn2cc(-c2ccccc2)n1CCOCCO`, for which the outcome was inactive.

For a further experiment, the system named is NCI-H322. The experiment in a line: Cytotoxicity against human NCI-H322 cells assessed as reduction of total cell quantity at 40 uM after 48 hrs by inverted microscopic analysis. The class given is functional, cell-based.
Details: not given
For the molecule `COc1ccc(-c2cc3c(=O)n(CCOCCO)c(-c4ccc(OC)cc4)cn3n2)cc1`, the outcome was Active.

Take `O=c1c2cc(-c3ccc(Cl)cc3)nn2cc(-c2ccccc2)n1CCOCCO`: the outcome was Active.

Consider `O=c1c2cc(-c3ccccc3)nn2cc(-c2ccccc2)n1CCOCCO`, for which the result was Active.
